Test [1] is filed under the species Mus musculus. Briefly: Tested for inhibition of specific [3H]- okadaic acid binding to the cytosolic fraction of mouse skin. The format is functional.
The species named for test [2] is Mus musculus. Briefly: Tested for intra peritoneal dose at which compound dose not show toxicity in mouse. The format is functional, organism-based.
The species entered for test [3] is Mus musculus. Put plainly: Tested for inhibition of specific [3H]- okadaic acid binding to the cytosolic fraction of mouse liver. The format is functional.
Test [4] is filed under the species Mus musculus. Briefly: Tested for inhibition of specific [3H]- okadaic acid binding to the cytosolic fraction of mouse skin. The format is functional.

In the case of `C=C1C(=O)N[C@H](C)C(=O)N[C@@H](CC(C)C)C(=O)N[C@@H](C(=O)O)[C@H](C)C(=O)N[C@@H](CCCNC(=N)N)C(=O)N[C@@H](/C=C/C(C)=C/[C@H](C)[C@H](Cc2ccccc2)OC)[C@H](C)C(=O)N[C@@H](C(=O)O)CCC(=O)N1C` (stereo in doubt; form 1), in the test filed under Mus musculus [1], the ED50 is 68 nM.

With `C=C1C(=O)N[C@H](C)C(=O)N[C@@H](CC(C)C)C(=O)N[C@@H](C(=O)O)[C@H](C)C(=O)N[C@@H](CCCNC(=N)N)C(=O)N[C@@H](/C=C/C(C)=C/[C@H](C)[C@H](Cc2ccccc2)OC)[C@H](C)C(=O)N[C@@H](C(=O)O)CCC(=O)N1C` (stereo in doubt; form 2), the DOSE in the test listed under Mus musculus [2] stood at 1 mg/kg. For the same molecule, the figures for the ED50 in the test listed under Mus musculus [3] and in the test listed under Mus musculus [1] were 1.3 nM and 8 nM, respectively. `COC[C@@H]([C@H](O)[C@H](O)C(=O)NCC[C@H](C)c1nc(/C=C/C[C@@H]2O[C@]3(C[C@@H](O)[C@@H]2C)O[C@H]([C@H](C[C@H](O)[C@H](C)[C@H](O)[C@H](C)/C=C(C)/C(C)=C/C=C/C(C)=C\C#N)OC)[C@H](OP(=O)(O)O)C3(C)C)co1)N(C)C` [CALYCULIN A] displayed an ED50 in the test filed under Mus musculus [1] of 2.8 nM. As to `C=C1[C@@H](O)[C@@H]2O[C@]3(CC[C@H](/C=C/[C@@H](C)[C@@H]4CC(C)=C[C@@]5(O[C@H](C[C@@](C)(O)C(=O)O)CC[C@H]5O)O4)O3)CC[C@H]2O[C@@H]1[C@@H](O)C[C@H](C)[C@H]1O[C@@]2(CCCCO2)CC[C@H]1C` [OKADAIC ACID], the ED50 in the test listed under Mus musculus [3] is 3.2 nM; in the test filed under Mus musculus [4], 2.8 nM.

The values are drawn from ChEMBL document CHEMBL1150469, “The conserved acid binding domain model of inhibitors of protein phosphatases 1 and 2A: Molecular modelling aspects” (Bioorg Med Chem Lett, 1993).
